Several values for one entry are separate records, joined by “and”; a condition that tells them apart may be missing. Equal values may be shown once. Read-outs that look alike come from different tables or passages of the source.
Target: T1, human Kv3.1 channels (hKv3.1) (Homo sapiens, UniProt P48547)
T1 sequence (P48547 1-501 limits assumed): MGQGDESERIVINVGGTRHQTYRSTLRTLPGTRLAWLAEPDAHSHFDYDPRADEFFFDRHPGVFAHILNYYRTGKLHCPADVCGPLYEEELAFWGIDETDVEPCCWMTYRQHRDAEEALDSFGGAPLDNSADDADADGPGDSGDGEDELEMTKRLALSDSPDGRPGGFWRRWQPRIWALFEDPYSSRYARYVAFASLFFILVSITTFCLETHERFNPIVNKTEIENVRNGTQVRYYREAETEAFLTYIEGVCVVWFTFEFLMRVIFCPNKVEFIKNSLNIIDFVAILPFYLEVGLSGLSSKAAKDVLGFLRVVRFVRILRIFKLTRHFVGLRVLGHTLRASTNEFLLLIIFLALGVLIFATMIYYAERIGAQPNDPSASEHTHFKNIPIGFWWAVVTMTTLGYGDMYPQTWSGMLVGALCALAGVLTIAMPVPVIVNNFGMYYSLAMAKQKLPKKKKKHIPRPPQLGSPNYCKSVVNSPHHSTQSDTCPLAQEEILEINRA
Assay: Measurement of Kv3 channel modulation: Kv3.1 assay (IonWorks Quattro whole-cell electrophysiology)
Assay type: cell-based
Conditions: for Kv3.1 max R %: normalised to maximum effect of reference compound (50 microM); for EC50: read-out: Kv3.1 pEC50 (converted)
Procedure: The ability of the compounds of the invention to modulate the voltage-gated potassium channel subtypes Kv3.4/Kv3.3/Kv3.2/Kv3.1 may be determined using the following assay. Analogous methods may be used to investigate the ability of the compounds of the invention to modulate other channel subtypes.
Human embryonic kidney (HEK)-hKv3.1 cell line is generated by transfecting HEK-293 cells with an expression vector with human Kv3.1 (NM_004976.4). Cells are cultured with MEM supplemented with 10% Heat-Inactivated FBS, 2 mM L-glutamine, 1% Penicillin-Streptomycin, and 0.6 mg/ml of Geneticin (G418). HEK-hKv3.1b cells were amplified in T175 cm2 flask at 37° C. with 5% CO2, using MEM amplification medium, containing the G418 selection antibiotic (0.6 mg/ml). Cells were detached every 3-4 days, using DPBS to wash twice the flask, then TrypLE to dislodge the cells, and re-plated at a density of 2-4×10^6 cells/flask.
The day of the experiment, cells are removed from the incubator and the culture medium removed. Cells are washed with 5 ml of Dulbecco's PBS (DPBS) calcium and magnesium free and detached by the addition of 3 ml Versene (Invitrogen, Italy) followed by a brief incubation at 37° C. for 5 minutes. The flask is tapped to dislodge cells and 10 ml of DPBS containing calcium and magnesium is added to prepare a cell suspension. The cell suspension is then placed into a 15 ml centrifuge tube and centrifuged for 2 min at 1200 rpm. After centrifugation, the supernatant is removed and the cell pellet re-suspended in 4 ml of DPBS containing calcium and magnesium using a 5 ml pipette to break up the pellet. Cell suspension volume is then corrected to give a cell concentration for the assay of approximately 3 million cells per ml.
Experiments are conducted at r.t. using IonWorks Quattro™ planar array electrophysiology technology (Molecular Devices Corp.) with PatchPlate™ PPC. Stimulation protocols and data acquisition are carried out using a microcomputer (Dell Pentium 4). Planar electrode hole resistances (Rp) are determined by applying a 10 mV voltage step across each well. These measurements are performed before cell addition. After cell addition and seal formation, a seal test is performed by applying a voltage step from −80 mV to −70 mV for 160 ms. Following this, amphotericin-B solution is added to the intracellular face of the electrode to achieve intracellular access. Cells are held at −70 mV. Leak subtraction is conducted in all experiments by applying 50 ms hyperpolarizing (10 mV) prepulses to evoke leak currents followed by a 20 ms period at the holding potential before test pulses.
For hKv3.2 and hKv3.1, assays from the holding potential of −70 mV, a first test pulse at −15 mV was applied for 100 ms and after 100 ms at −70 mV a second pulse at +40 mV was applied for 50 ms. Cells were then maintained for 100 ms at −100 mV and another pulse from […] to +40 mV (duration 50 ms) was applied to clamp later the voltage at −40 mV during 200 ms
The intracellular solution contains the following (in mM): K-gluconate 100, KCl 54, MgCl2 3.2, HEPES 5, adjusted to pH 7.3 with KOH. Amphotericin-B solution is prepared as 50 mg/ml stock solution in DMSO and diluted to a final working concentration of 0.1 mg/ml in intracellular solution.
Compounds of use in the invention (or reference compounds such as N-cyclohexyl-N-[(7,8-dimethyl-2-oxo-1,2-dihydro-3-quinolinyl)methyl]-N′-phenylurea) are dissolved in dimethylsulfoxide (DMSO) at a stock concentration of 10 mM. […] Each dilution (1 μL) is transferred to another compound plate and external solution containing 0.05% pluronic acid (66 μL) is added. 3.5 μL from each plate containing a compound of the invention is added and incubated with the cells during the IonWorks Quattro™ experiment. The final assay dilution is 200 and the final compound concentrations are in the range 50 μM to 50 nM.

[1] = Table 1, Reference Examples, current at -15 mV step, normalised to 50 microM reference compound
[2] = Table 3, Reference Examples and corresponding Examples, rounded to one decimal place
[3] = Table 2, Example compounds, rounded to one decimal place, some compounds with two data sets (n given in cell)

| Structure (SMILES) | Kv3.1 max R % (Table 1, Reference Examples) [%] | EC50 [1] [nM] | EC50 [2] [nM] | Kv3.1 max R % (Table 2, Example compounds) | EC50 [3] |
| --- | --- | --- | --- | --- | --- |
| CC[C@H]1NC(=O)N(c2ccc(Oc3ccc(C)c4c3C3(CC3)CO4)nc2)C1=O [RE1, reference compound] | 157 |  |  |  |  |
| Cc1ccc(Oc2ccc(N3C(=O)NCC(C)(C)C3=O)cn2)c2c1OCC21CC1 [RE6, reference compound] | 111 | 25100 |  |  |  |
| Cc1ccc(Oc2ccc(N3C(=O)NCc4cccnc43)cn2)c2c1OCC21CC1 [RE11, reference compound] |  |  | 2000 |  |  |
| Cc1ccnc2c1[nH]c(=O)n2-c1ccc(Oc2cccc3c2C2(CC2)CO3)nc1 [Example 5, 7-methyl-3-(6-spiro[2H-benzofuran-3,1′-cyclopropane]-4-yloxy-3-pyridyl)-1H-imidazo[4,5-b]pyridin-2-one] |  |  |  | 132% | 316 nM |
| Cn1cc2[nH]c(=O)n(-c3ccc(Oc4cccc5c4C4(CC4)CO5)nc3)c2n1 [Example 18, 2-methyl-6-(6-spiro[2H-benzofuran-3,1′-cyclopropane]-4-yloxy-3-pyridyl)-4H-imidazo[4,5-c]pyrazol-5-one] |  |  |  | 148% | 251 nM |
| CC1(C)COc2cccc(Oc3ncc(-n4c(=O)[nH]c5cnccc54)cn3)c21 [RE9, reference compound] |  |  | > 50100 |  |  |
| CC[C@@H]1CN(c2ccc(Oc3ccc(C)c4c3C3(CC3)CO4)nc2)C(=O)N1 [RE2, reference compound] | 92 | 20000 |  |  |  |
| Cc1ccnc2c1[nH]c(=O)n2-c1cnc(Oc2cccc3c2C2(CC2)CO3)nc1 [Example 15, 7-methyl-3-(2-spiro[2H-benzofuran-3,1′-cyclopropane]-4-yloxypyrimidin-5-yl)-1H-imidazo[4,5-b]pyridin-2-one] |  |  |  | 201% | 1000 nM |
| Cc1ccc(Oc2ccc(N3C(=O)CCNC3=O)cn2)c2c1OCC21CC1 [RE8, reference compound] | 140 | 25100 |  |  |  |
| Cc1ccc(Oc2ncc(N3C(=O)NC(C)(C)C3=O)cn2)c2c1OCC21CC1 [RE4, reference compound] | 158 |  |  |  |  |
| Cn1cc2[nH]c(=O)n(-c3cnc(Oc4cccc5c4C4(CC4)CO5)nc3)c2n1 [Example 22, 2-methyl-6-(2-spiro[2H-benzofuran-3,1′-cyclopropane]-4-yloxypyrimidin-5-yl)-4H-imidazo[4,5-c]pyrazol-5-one] |  |  |  | 166% | 501 nM |
| Cc1ccc(Oc2ncc(-n3c(=O)[nH]c4cccnc43)cn2)c2c1OCC2(C)C [Example 39, 3-[2-[(3,3,7-trimethyl-2H-benzofuran-4-yl)oxy]pyrimidin-5-yl]-1H-imidazo[4,5-b]pyridin-2-one] |  |  |  | 215% | 1580 nM |
| Cc1ccc(Oc2ccc(N3C(=O)CC(C)(C)NC3=O)cn2)c2c1OCC21CC1 [RE5, reference compound] | 90 | 11200 |  |  |  |
| Cc1ccc(Oc2ccc(-n3c(=O)[nH]c4c(C)ccnc43)cn2)c2c1OCC21CC1 [Example 2, 7-methyl-3-[6-(7-methylspiro[2H-benzofuran-3,1′-cyclopropane]-4-yl)oxy-3-pyridyl]-1H-imidazo[4,5-b]pyridin-2-one] |  |  |  | 83% | 158 nM |
| Cc1ncc2[nH]c(=O)n(-c3ccc(Oc4ccc(C)c(OC(F)(F)F)c4)nc3)c2n1 [Example 27, 2-methyl-9-[6-[4-methyl-3-(trifluoromethoxy)phenoxy]-3-pyridyl]-7H-purin-8-one] |  |  |  | 134% and 138% | 1580 nM and 1260 nM |
| Cc1ccc(Oc2cnc(-n3c(=O)[nH]c4cccnc43)cn2)c2c1OCC21CC1 [Example 11, 3-[5-(7-methylspiro[2H-benzofuran-3,1′-cyclopropane]-4-yl)oxypyrazin-2-yl]-1H-imidazo[4,5-b]pyridin-2-one] |  |  |  | 205% | 316 nM |
| COc1cccc(Oc2ccc(-n3c(=O)[nH]c4cnc(C)nc43)cn2)c1 [Example 28, 9-[6-(3-methoxyphenoxy)-3-pyridyl]-2-methyl-7H-purin-8-one] |  |  |  | 140% | 3980 nM |
| Cc1ncc2[nH]c(=O)n(-c3ccc(Oc4ccc(C)c5c4C4(CC4)CO5)nc3)c2n1 [Example 25, 2-methyl-9-[6-(7-methylspiro[2H-benzofuran-3,1′-cyclopropane]-4-yl)oxy-3-pyridyl]-7H-purin-8-one] |  |  |  | 190% | 316 nM |
| Cc1ncc2[nH]c(=O)n(-c3ccc(Oc4cccc5c4C(C)(C)CO5)nc3)c2n1 [Example 30, 9-[6-[(3,3-dimethyl-2H-benzofuran-4-yl)oxy]-3-pyridyl]-2-methyl-7H-purin-8-one] |  |  |  | 123% | 126 nM |
| Cc1ccc2[nH]c(=O)n(-c3cnc(Oc4cccc5c4C4(CC4)CO5)cn3)c2n1 [Example 37, 5-methyl-3-(5-spiro[2H-benzofuran-3,1′-cyclopropane]-4-yloxypyrazin-2-yl)-1H-imidazo[4,5-b]pyridin-2-one] |  |  |  | 124% | 126 nM |
| CC1(C)COc2cccc(Oc3ccc(-n4c(=O)[nH]c5cccnc54)cn3)c21 [Example 12, 3-[6-[(3,3-dimethyl-2H-benzofuran-4-yl)oxy]-3-pyridyl]-1H-imidazo[4,5-b]pyridin-2-one] |  |  |  | 164% | 316 nM |
| Cc1ccc(Oc2ccc(-n3c(=O)[nH]c4ccncc43)cn2)c2c1OCC21CC1 [Example 35, 3-[6-(7-methylspiro[2H-benzofuran-3,1′-cyclopropane]-4-yl)oxy-3-pyridyl]-1H-imidazo[4,5-c]pyridin-2-one] |  |  |  | 225% | 1000 nM |
| N#Cc1ccc(Oc2ccc(-n3c(=O)[nH]c4cccnc43)cn2)cc1OC(F)(F)F [Example 14, 4-[[5-(2-oxo-1H-imidazo[4,5-b]pyridin-3-yl)-2-pyridyl]oxy]-2-(trifluoromethoxy)benzonitrile] |  |  |  | 124% | 1000 nM |
| O=c1[nH]c2cccnc2n1-c1ccc(Oc2cccc3c2C2(CC2)CO3)cn1 [Example 6, 3-(5-spiro[2H-benzofuran-3,1′-cyclopropane]-4-yloxy-2-pyridyl)-1H-imidazo[4,5-b]pyridin-2-one] |  |  |  | 221% | 2000 nM |
| Cn1cc2[nH]c(=O)n(-c3ccc(Oc4cccc5c4C(C)(C)CO5)nc3)c2n1 [Example 20, 6-[6-[(3,3-dimethyl-2H-benzofuran-4-yl)oxy]-3-pyridyl]-2-methyl-4H-imidazo[4,5-c]pyrazol-5-one] |  |  |  | 145% and 155% | 794 nM and 631 nM |

Source: patent US20240327406A1, “POTASSIUM CHANNEL MODULATORS” (Autifony Therapeutics Limited, priority 2021, published 2024)
